Measurements taken from PubChem BioAssay (NCI).
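48-hour exposure; five concentrations; linearly interpolated endpoints. TGI marks complete inhibition of growth.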

Legend:
Assay in all cases: NCI tumour cell line growth inhibition, 48 h
DMS 273 small cell lung = system: DMS 273 small cell lung
LXFL 529 NSCLC = system: LXFL 529 NSCLC
DLD-1 colon = system: DLD-1 colon
HOP-18 NSCLC = system: HOP-18 NSCLC
SNB-78 CNS = system: SNB-78 CNS
XF 498 CNS = system: XF 498 CNS
RXF-631 renal = system: RXF-631 renal
DMS 114 small cell lung = system: DMS 114 small cell lung
P388/ADR leukemia = system: P388/ADR leukemia
P388 leukemia = system: P388 leukemia
SN12K1 renal = system: SN12K1 renal

Compound	TGI (DMS 273 small cell lung)	TGI (LXFL 529 NSCLC)	TGI (DLD-1 colon)	TGI (HOP-18 NSCLC)	TGI (SNB-78 CNS)	TGI (XF 498 CNS)	TGI (RXF-631 renal)	TGI (DMS 114 small cell lung)	TGI (P388/ADR leukemia)	TGI (P388 leukemia)	TGI (SN12K1 renal)
O=C1C=CC(=O)c2c(O)c(N3CCN(CCOCCO)CC3)c(Cl)c(O)c21	2.25 µM	0.45 µM	0.401 µM	2.73 µM	1.35 µM	1.88 µM					
C#CCC1(C(=O)OCC)C(=O)c2ccccc2N(C)C1=O (centres undefined)	> 100 µM	> 100 µM	> 100 µM	> 100 µM	> 100 µM	95.9 µM	> 100 µM	> 100 µM			
O=C1C=CC(=O)c2c(Cl)ccc(O)c21	25.4 µM		27.6 µM	33.4 µM	41.2 µM	32.7 µM		33.6 µM	1.96 µM	3.84 µM	> 55.2 µM
CC(=O)CC(=O)CCC(=O)O	> 100 µM		> 100 µM	> 100 µM	> 100 µM	> 100 µM		> 100 µM			
CC(=O)O[C@H]1CC[C@@]2(C)[C@H](CC[C@@H]3[C@@H]2CC[C@]2(C)[C@@H](c4ccc(=O)oc4)C[C@H]4O[C@]342)C1	1.47 µM		7.34 µM	9.72 µM	4.8 µM	3.27 µM		1.03 µM	125 µM	125 µM	1.83 µM
CC1(C2CCC3(C)OC3C2)CO1 (centres undefined)	> 100 µM	> 100 µM	> 100 µM	> 100 µM	> 100 µM	> 100 µM	> 100 µM	> 100 µM			
O=C(CC1Sc2ccccc2NC1=O)Nc1ccc(Cl)cc1 (centres undefined)	> 100 µM	> 100 µM	> 100 µM	> 100 µM	> 100 µM	> 100 µM	> 100 µM	> 100 µM			
